Laboratory results: patent US11802133B2, “Heterocyclic compounds as monoacylglycerol lipase inhibitors” (Hoffmann-La Roche Inc., priority 2018, dated 2023)

Biological target: MAGL (recombinant wild-type) (Homo sapiens (Human), UniProt Q99685)
Experiment: 4-NPA assay: MAGL inhibitory activity by hydrolysis of 4-nitrophenylacetate (absorbance at 405 nm)
Format: biochemical
Details: measured in 4-NPA assay (footnote [a]); 1 nM MAGL, 300 μM 4-nitrophenylacetate
Experimental: This assay is hereinafter abbreviated “4-NPA assay”.
The plate was shaked for 1 min at 2000 rpm (Variomag Teleshake) and then incubated for 15 min at RT. […] The final concentrations in the assay were 1 nM MAGL and 300 μM 4-Nitrophenylacetate. […] A second measurement was then done after incubation for 80 min at RT. From the two measurements, the slope was calculated by subtracting the first from the second measurement.

MAGL (recombinant wild-type), sequence (Q99685 whole entry, species assumed): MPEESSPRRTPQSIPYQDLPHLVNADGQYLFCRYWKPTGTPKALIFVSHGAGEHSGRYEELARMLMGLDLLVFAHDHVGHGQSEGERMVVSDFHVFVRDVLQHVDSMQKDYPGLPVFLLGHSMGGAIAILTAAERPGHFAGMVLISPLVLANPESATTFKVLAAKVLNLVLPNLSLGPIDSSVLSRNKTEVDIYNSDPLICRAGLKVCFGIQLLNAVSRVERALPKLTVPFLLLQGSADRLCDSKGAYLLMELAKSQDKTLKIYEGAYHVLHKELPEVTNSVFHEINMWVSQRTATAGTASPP

IC50 [nM] | Compound
66 | CC(C)(C)c1csc(CC2CCN(C(=O)N3CC[C@@H]4OCC(=O)N[C@@H]4C3)CC2)n1 (racemic) [Example 3, rac-(4aR,8aS)-6-[4-[(4-tert-Butylthiazol-2-yl)methyl]piperidine-1-carbonyl]-4,4a,5,7,8,8a-hexahydropyrido[4,3-b][1,4]oxazin-3-one]
42 | O=C1CO[C@H]2CCN(C(=O)N3CCC(Cc4ccc(C(F)(F)F)cc4)CC3)C[C@H]2N1 (racemic) [Example 11, rac-(4aR,8aS)-6-[4-[[4-(Trifluoromethyl)phenyl]methyl]piperidine-1-carbonyl]-4,4a,5,7,8,8a-hexahydropyrido[4,3-b][1,4]oxazin-3-one]
909 | O=C1CO[C@H]2CCN(C(=O)N3CCN(Cc4ccc(C(F)(F)F)cc4)CC3)C[C@H]2N1 (racemic) [Example 21, rac-(4aR,8aS)-6-(4-(4-(Trifluoromethyl)benzyl)piperazine-1-carbonyl)hexahydro-2H-pyrido[4,3-b][1,4]oxazin-3(4H)-one]

Biological target: MAGL (Homo sapiens (Human), UniProt Q99685)
Experiment: 2-AG assay: MAGL inhibitory activity by hydrolysis of 2-arachidonoylglycerol to arachidonic acid (mass spectrometry)
Format: biochemical
Details: measured in 2-AG assay (footnote [b]); 8 μM 2-arachidonoylglycerol
Experimental: Alternatively, compounds were profiled for MAGL inhibitory activity by determining the enzymatic activity by following the hydrolysis of the natural substrate 2-arachidonoylglycerol resulting in arachidonic acid, which can be followed by mass spectrometry. This assay is hereinafter abbreviated “2-AG assay”.
A C18 SPE cartridge (G9205A) was used in an acetonitrile/water liquid setup. […] The activity of the compounds was calculated based on the ratio of intensities [arachidonic acid/d8-arachidonic acid].

MAGL, sequence (Q99685 whole entry, species assumed): as above

Compound | IC50 [nM]
N#Cc1cc(OC2CCN(C(=O)N3CC[C@@H]4OCC(=O)N[C@@H]4C3)CC2)ccc1C(F)(F)F [Example 262] | 181
N#Cc1cc(OC2CN(C(=O)N3CC[C@@H]4OCC(=O)N[C@@H]4C3)C2)ccc1C(F)(F)F [Example 263, (+)-5-[1-[(4aR,8aS)-3-Oxo-4,4a,5,7,8,8a-hexahydropyrido[4,3-b][1,4]oxazine-6-carbonyl]azetidin-3-yl]oxy-2-(trifluoromethyl)benzonitrile] | 1100
CC1CN(c2cccc(OC3CN(C(=O)N4CC[C@@H]5OCC(=O)N[C@@H]5C4)C3)c2Cl)C1 [Example 272, (+)-(4aR,8aS)-6-[3-[2-Chloro-3-(3-methylazetidin-1-yl)phenoxy]azetidine-1-carbonyl]-4,4a,5,7,8,8a-hexahydropyrido[4,3-b][l,4]oxazin-3-one] | 94
CC1(F)CN(c2cccc(OC3CN(C(=O)N4CC[C@@H]5OCC(=O)N[C@@H]5C4)C3)c2Cl)C1 [Example 273, (+)-(4aR,8aS)-6-[3-[2-Chloro-3-(3-fluoro-3-methyl-azetidin-1-yl)phenoxy]azetidine-1-carbonyl]-4,4a,5,7,8,8a-hexahydropyrido[4,3-b] [1,4] oxazin-3-one] | 89
CC(C)(C)OC1CN(c2cccc(OC3CN(C(=O)N4CC[C@@H]5OCC(=O)N[C@@H]5C4)C3)c2Cl)C1 [Example 274, (+)-(4aR,8aS)-6-(3-(3-(3-(tert-Butoxy)azetidin-1-yl)-2-chlorophenoxy)azetidine-1-carbonyl)hexahydro-2H-pyrido[4,3-b][1,4]oxazin-3(4H)-one] | 126
O=C1CO[C@H]2CCN(C(=O)N3CC(Oc4cc(Cl)cc(N5CC6(CCC6)C5)c4)C3)C[C@H]2N1 [Example 277, (+)-(4aR,8aS)-6-[3-[3-(2-Azaspiro[3.3]heptan-2-yl)-5-chloro-phenoxy]azetidine-1-carbonyl]-4,4a,5,7,8,8a-hexahydropyrido[4,3-b][1,4]oxazin-3-one] | 455
O=C1CO[C@H]2CCN(C(=O)N3CC(Oc4cc(Cl)cc(N5CCCC5)c4)C3)C[C@H]2N1 [Example 278, (+)-(4aR,8aS)-6-[3-(3-Chloro-5-pyrrolidin-l-yl-phenoxy)azetidine-1-carbonyl]-4,4a,5,7,8,8a-hexahydropyrido[4,3-b][1,4]oxazin-3-one] | 211
O=C1CO[C@H]2CCN(C(=O)N3CC(Cc4cccc(OC(F)(F)F)c4)C3)C[C@H]2N1 [Example 282] | 136
O=C1CO[C@H]2CCN(C(=O)N3CCC(Oc4cc(C(F)(F)F)ccc4F)C3)C[C@H]2N1 (some centres unmarked) [Example 283] | 179
O=C1CO[C@H]2CCN(C(=O)N3CCC(Oc4cc(C(F)(F)F)ccc4F)C3)C[C@H]2N1 (some centres unmarked) [Example 285] | 2600
O=C1CO[C@H]2CCN(C(=O)N3CCC(Oc4cc(C(F)(F)F)ccc4F)C3)C[C@H]2N1 (some centres unmarked) [Example 286] | 128
Cc1ccc(COC2CN(C(=O)N3CC[C@@H]4OCC(=O)N[C@@H]4C3)C2)cc1C(F)(F)F [Example 294] | 3000

Next, values leading:

IC50 [nM] | Compound
48 | O=C1CO[C@H]2CCN(C(=O)N3CC(Oc4ccc(C(F)(F)F)c(Cl)c4)C3)C[C@H]2N1 [Example 261]
84 | O=C1CO[C@H]2CCN(C(=O)N3CC(Oc4ccc(Cl)c(Br)c4)C3)C[C@H]2N1 [Example 264]
6 | O=C1CO[C@H]2CCN(C(=O)N3CC(Oc4ccc(C(F)(F)F)c(N5CC6(CCC6)C5)c4)C3)C[C@H]2N1 [Example 265, (+)-(4aR,8aS)-6-[3-[3-(2-Azaspiro[3.3]heptan-2-yl)-4-(trifluoromethyl)phenoxy]azetidine-1-carbonyl]-4,4a,5,7,8,8a-hexahydropyrido[4,3-b][1,4]oxazin-3-one]
18 | CC1CN(c2cc(OC3CN(C(=O)N4CC[C@@H]5OCC(=O)N[C@@H]5C4)C3)ccc2C(F)(F)F)C1 [Example 266, (+)-(4aR,8aS)-6-[3-[3-(3-Methylazetidin-l-yl)-4-(trifluoromethyl)phenoxy]azetidine-1-carbonyl]-4,4a,5,7,8,8a-hexahydropyrido[4,3-b][l,4]oxazin-3-one]
42 | O=C1CO[C@H]2CCN(C(=O)N3CC(Oc4ccc(C(F)(F)F)c(N5CC(F)(F)C5)c4)C3)C[C@H]2N1 [Example 267, (+)-(4aR,8aS)-6-[3-[3-(3,3-Difluoroazetidin-1-yl)-4-(trifluoromethyl)phenoxy]azetidine-1-carbonyl]-4,4a,5,7,8,8a-hexahydropyrido[4,3-b][l,4]oxazin-3-one]
28 | CC1(F)CN(c2cc(OC3CN(C(=O)N4CC[C@@H]5OCC(=O)N[C@@H]5C4)C3)ccc2C(F)(F)F)C1 [Example 268, (+)-(4aR,8aS)-6-[3-[3-(3-Fluoro-3-methyl-azetidin-1-yl)-4-(trifluoromethyl)phenoxy]azetidine-1-carbonyl]-4,4a,5,7,8,8a-hexahydropyrido[4,3-b][l,4]oxazin-3-one]
24 | O=C1CO[C@H]2CCN(C(=O)N3CC(Oc4ccc(C(F)(F)F)c(N5CC6(C5)CC(F)(F)C6)c4)C3)C[C@H]2N1 [Example 269, (+)-(4aR,8aS)-6-[3-[3-(6,6-Difluoro-2-azaspiro[3.3]heptan-2-yl)-4-(trifluoromethyl)phenoxy]azetidine-1-carbonyl]-4,4a,5,7,8,8a-hexahydropyrido[4,3-b][l,4]oxazin-3-one]
61 | O=C1CO[C@H]2CCN(C(=O)N3CC(Oc4ccc(C(F)(F)F)c(N5CC6(CCCCO6)C5)c4)C3)C[C@H]2N1 [Example 270, (+)-(4aR,8aS)-6-[3-[3-(5-oxa-2-azaspiro[3.5]nonan-2-yl)-4-(trifluoromethyl)phenoxy]azetidine-1-carbonyl]-4,4a,5,7,8,8a-hexahydropyrido[4,3-b][l,4]oxazin-3-one]
20 | O=C1CO[C@H]2CCN(C(=O)N3CC(Oc4cccc(N5CC6(CCC6)C5)c4Cl)C3)C[C@H]2N1 [Example 271, (+)-(4aR,8aS)-6-[3-[3-(2-Azaspiro[3.3]heptan-2-yl)-2-chloro-phenoxy]azetidine-1-carbonyl]-4,4a,5,7,8,8a-hexahydropyrido[4,3-b][1,4]oxazin-3-one]
32 | O=C1CO[C@H]2CCN(C(=O)N3CC(Oc4cccc(N5CC6(CCCO6)C5)c4Cl)C3)C[C@H]2N1 [Example 275, (+)-(4aR,8aS)-6-[3-[2-Chloro-3-(5-oxa-2-azaspiro[3.4]octan-2-yl)phenoxy]azetidine-1-carbonyl]-4,4a,5,7,8,8a-hexahydropyrido[4,3-b][1,4]oxazin-3-one]
19 | O=C1CO[C@H]2CCN(C(=O)N3CC(Oc4cccc(N5CC6(CCCCO6)C5)c4Cl)C3)C[C@H]2N1 [Example 276, (+)-(4aR,8aS)-6-[3-[2-chloro-3-(5-oxa-2-azaspiro[3.5]nonan-2-yl)phenoxy]azetidine-1-carbonyl]-4,4a,5,7,8,8a-hexahydropyrido[4,3-b][1,4]oxazin-3-one]
41 | O=C1CO[C@H]2CCN(C(=O)N3CC(OCc4ccc(F)cc4C(F)(F)F)C3)C[C@H]2N1 [Example 280]
35 | O=C1CO[C@H]2CCN(C(=O)N3CC(CC(F)(F)c4ccc(C(F)(F)F)cc4)C3)C[C@H]2N1 [Example 281]
72 | O=C1CO[C@H]2CCN(C(=O)N3CCC(Oc4cc(C(F)(F)F)ccc4Cl)C3)C[C@H]2N1 (some centres unmarked) [Example 284]
6 | Cc1ccc(/C=C/C2CN(C(=O)N3CC[C@@H]4OCC(=O)N[C@@H]4C3)C2)c(F)c1 [Example 287]
53 | O=C1CO[C@H]2CCN(C(=O)N3CC(OCc4ccc(OC(F)(F)F)c(F)c4)C3)C[C@H]2N1 [Example 288]
3 | O=C1CO[C@H]2CCN(C(=O)N3CC(/C=C/c4c(F)cccc4C(F)(F)F)C3)C[C@H]2N1 [Example 289]
44 | Cc1cccc(COC2CN(C(=O)N3CC[C@@H]4OCC(=O)N[C@@H]4C3)C2)c1C [Example 290]
28 | Cc1ccc(COC2CN(C(=O)N3CC[C@@H]4OCC(=O)N[C@@H]4C3)C2)c(C)c1 [Example 291]
5 | Cc1cc(C(F)(F)F)ccc1COC1CN(C(=O)N2CC[C@@H]3OCC(=O)N[C@@H]3C2)C1 [Example 292]
